Measured values: the supplement of paper PMC4862054

Each compound was assayed on HCC1143 (assay: normalised response (% of control), CellTiter-Glo; higher = more viable cells (100 = DMSO, 0 = benzethonium chloride kill control)). Conditions: incubation time: 72 h.
Summary of the method: (§1)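 Normalised signals at single concentrations make up the values. They come from breast cancer cell lines seeded (20 µl suspension) into 384-well plates with compound at 5 concentrations in 10-fold steps over a compound-specific 10,000-fold range, incubated 72 h, and read for CellTox Green fluorescence then CellTiter-Glo luminescence. Each plate was normalised to 0.1 % DMSO (100) and a positive kill control (0).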

| Compound | normalised response [%] |
| --- | --- |
| O=C(O)C(=O)O.[NH-][C@@H]1CCCC[C@H]1[NH-].[Pt+2] [Oxaliplatin] (10 nM) | 94 |
| C=CC(=O)Nc1cc2c(Nc3ccc(F)c(Cl)c3)ncnc2cc1OCCCN1CCOCC1 [Canertinib] (10 nM) | 99.8 |
| CC(=O)Nc1cccc(-n2c(=O)n(C3CC3)c(=O)c3c(Nc4ccc(I)cc4F)n(C)c(=O)c(C)c32)c1 [Trametinib] (0.25 nM) | 99.1 |
| C=CC(=O)N1CCC[C@@H](n2nc(-c3ccc(Oc4ccccc4)cc3)c3c(N)ncnc32)C1 [Ibrutinib] (1 nM) | 106 |
| CCCCC(=O)OCC(=O)[C@]1(O)Cc2c(O)c3c(c(O)c2[C@@H](O[C@H]2C[C@H](NC(=O)C(F)(F)F)[C@H](O)[C@H](C)O2)C1)C(=O)c1c(OC)cccc1C3=O [Valrubicin] (0.5 nM) | 102 |
| COc1cc2nccc(Oc3ccc(NC(=O)Nc4cc(C)on4)c(Cl)c3)c2cc1OC [Tivozanib] (10 nM) | 99.9 |
| CCN(CC)CCCC(C)Nc1c2ccc(Cl)cc2nc2ccc(OC)cc12 (stereo not given) [Mepacrine] (5 nM) | 97.5 |
| CCCS(=O)(=O)Nc1ccc(F)c(C(=O)c2c[nH]c3ncc(-c4ccc(Cl)cc4)cc23)c1F [Vemurafenib] (10 nM) | 97.6 |
| CCCS(=O)(=O)Nc1ccc(F)c(C(=O)c2c[nH]c3ncc(-c4ccc(Cl)cc4)cc23)c1F [Vemurafenib] (1 nM) | 85.1 |
| CC1=C(/C=C/C(C)=C/C=C/C(C)=C/C(=O)O)C(C)(C)CCC1 [Tretinoin] (10 nM) | 95.8 |
| Cc1ccc(-c2cc(C(F)(F)F)nn2-c2ccc(S(N)(=O)=O)cc2)cc1 [Celecoxib] (1 nM) | 96.8 |
| Oc1ncc(N(CCCl)CCCl)c(O)n1 [Uracil mustard] (1 nM) | 102 |
| Nc1ccccc1NC(=O)c1ccc(CNC(=O)OCc2cccnc2)cc1 [Entinostat] (1 nM) | 103 |
| C=CC(=O)Nc1cc2c(Nc3ccc(F)c(Cl)c3)ncnc2cc1OCCCN1CCOCC1 [Canertinib] (1 nM) | 95.6 |

What follows are compounds tested on DU-4475 in the same assay as above. Conditions: incubation time: 72 h.
Summary of the method: as §1

| Compound | normalised response [%] |
| --- | --- |
| C=CC(=O)N1CCC[C@@H](n2nc(-c3ccc(Oc4ccccc4)cc3)c3c(N)ncnc32)C1 [Ibrutinib] (0.1 nM) | 102 |
| Nc1nc2[nH]cc(CCc3ccc(C(=O)N[C@@H](CCC(=O)O)C(=O)O)cc3)c2c(=O)[nH]1 [Pemetrexed] (1 nM) | 95.1 |
| COc1cc2nccc(Oc3ccc(NC(=O)Nc4cc(C)on4)c(Cl)c3)c2cc1OC [Tivozanib] (1 nM) | 97.5 |
| COc1cc2c(NC3CCN(C(C)C)CC3)nc(C3CCCCC3)nc2cc1OCCCN1CCCC1 [UNC0638] (1 nM) | 88.9 |
| CNC(=O)c1cc(Oc2ccc(NC(=O)Nc3cc(C(C)(C)C)nn3-c3ccc4ncccc4c3)c(F)c2)ccn1 [Rebastinib] (0.1 nM) | 101 |
| N#Cc1ccc(C(c2ccc(C#N)cc2)n2cncn2)cc1 [Letrozole] (1 nM) | 97.8 |
| CC[C@H](Nc1ncnc2[nH]cnc12)c1nc2cccc(F)c2c(=O)n1-c1ccccc1 [GS-1101] (1 nM) | 100 |
| O=C(O)C(=O)O.[NH-][C@@H]1CCCC[C@H]1[NH-].[Pt+2] [Oxaliplatin] (10 nM) | 90.9 |
| C=CC(=O)Nc1cc2c(Nc3ccc(F)c(Cl)c3)ncnc2cc1OCCCN1CCOCC1 [Canertinib] (10 nM) | 107 |
| CC(=O)Nc1cccc(-n2c(=O)n(C3CC3)c(=O)c3c(Nc4ccc(I)cc4F)n(C)c(=O)c(C)c32)c1 [Trametinib] (0.25 nM) | 96.3 |
| C=CC(=O)N1CCC[C@@H](n2nc(-c3ccc(Oc4ccccc4)cc3)c3c(N)ncnc32)C1 [Ibrutinib] (1 nM) | 106 |
| CCCCC(=O)OCC(=O)[C@]1(O)Cc2c(O)c3c(c(O)c2[C@@H](O[C@H]2C[C@H](NC(=O)C(F)(F)F)[C@H](O)[C@H](C)O2)C1)C(=O)c1c(OC)cccc1C3=O [Valrubicin] (0.5 nM) | 99.8 |
| COc1cc2nccc(Oc3ccc(NC(=O)Nc4cc(C)on4)c(Cl)c3)c2cc1OC [Tivozanib] (10 nM) | 99.1 |
| CCN(CC)CCCC(C)Nc1c2ccc(Cl)cc2nc2ccc(OC)cc12 (stereo not given) [Mepacrine] (5 nM) | 96.2 |
| CCCS(=O)(=O)Nc1ccc(F)c(C(=O)c2c[nH]c3ncc(-c4ccc(Cl)cc4)cc23)c1F [Vemurafenib] (10 nM) | 93.2 |
| CCCS(=O)(=O)Nc1ccc(F)c(C(=O)c2c[nH]c3ncc(-c4ccc(Cl)cc4)cc23)c1F [Vemurafenib] (1 nM) | 96.7 |
| CC1=C(/C=C/C(C)=C/C=C/C(C)=C/C(=O)O)C(C)(C)CCC1 [Tretinoin] (10 nM) | 98.5 |
| Cc1ccc(-c2cc(C(F)(F)F)nn2-c2ccc(S(N)(=O)=O)cc2)cc1 [Celecoxib] (1 nM) | 95.5 |
| Oc1ncc(N(CCCl)CCCl)c(O)n1 [Uracil mustard] (1 nM) | 95.6 |
| Nc1ccccc1NC(=O)c1ccc(CNC(=O)OCc2cccnc2)cc1 [Entinostat] (1 nM) | 99.7 |
| C=CC(=O)Nc1cc2c(Nc3ccc(F)c(Cl)c3)ncnc2cc1OCCCN1CCOCC1 [Canertinib] (1 nM) | 105 |

The compounds below were run on MDA-MB-453 in the same assay as above. Conditions: incubation time: 72 h.
Summary of the method: as §1

| Compound | normalised response [%] |
| --- | --- |
| C=CC(=O)N1CCC[C@@H](n2nc(-c3ccc(Oc4ccccc4)cc3)c3c(N)ncnc32)C1 [Ibrutinib] (0.1 nM) | 110 |
| Nc1nc2[nH]cc(CCc3ccc(C(=O)N[C@@H](CCC(=O)O)C(=O)O)cc3)c2c(=O)[nH]1 [Pemetrexed] (1 nM) | 101 |
| COc1cc2nccc(Oc3ccc(NC(=O)Nc4cc(C)on4)c(Cl)c3)c2cc1OC [Tivozanib] (1 nM) | 94.7 |
| COc1cc2c(NC3CCN(C(C)C)CC3)nc(C3CCCCC3)nc2cc1OCCCN1CCCC1 [UNC0638] (1 nM) | 95.6 |
| CNC(=O)c1cc(Oc2ccc(NC(=O)Nc3cc(C(C)(C)C)nn3-c3ccc4ncccc4c3)c(F)c2)ccn1 [Rebastinib] (0.1 nM) | 102 |
| N#Cc1ccc(C(c2ccc(C#N)cc2)n2cncn2)cc1 [Letrozole] (1 nM) | 113 |
| CC[C@H](Nc1ncnc2[nH]cnc12)c1nc2cccc(F)c2c(=O)n1-c1ccccc1 [GS-1101] (1 nM) | 88.3 |
| O=C(O)C(=O)O.[NH-][C@@H]1CCCC[C@H]1[NH-].[Pt+2] [Oxaliplatin] (10 nM) | 81.9 |
| C=CC(=O)Nc1cc2c(Nc3ccc(F)c(Cl)c3)ncnc2cc1OCCCN1CCOCC1 [Canertinib] (10 nM) | 99.1 |
| CC(=O)Nc1cccc(-n2c(=O)n(C3CC3)c(=O)c3c(Nc4ccc(I)cc4F)n(C)c(=O)c(C)c32)c1 [Trametinib] (0.25 nM) | 100 |
| C=CC(=O)N1CCC[C@@H](n2nc(-c3ccc(Oc4ccccc4)cc3)c3c(N)ncnc32)C1 [Ibrutinib] (1 nM) | 107 |
| CCCCC(=O)OCC(=O)[C@]1(O)Cc2c(O)c3c(c(O)c2[C@@H](O[C@H]2C[C@H](NC(=O)C(F)(F)F)[C@H](O)[C@H](C)O2)C1)C(=O)c1c(OC)cccc1C3=O [Valrubicin] (0.5 nM) | 94.2 |
| COc1cc2nccc(Oc3ccc(NC(=O)Nc4cc(C)on4)c(Cl)c3)c2cc1OC [Tivozanib] (10 nM) | 91.7 |
| CCN(CC)CCCC(C)Nc1c2ccc(Cl)cc2nc2ccc(OC)cc12 (stereo not given) [Mepacrine] (5 nM) | 96.9 |
| CCCS(=O)(=O)Nc1ccc(F)c(C(=O)c2c[nH]c3ncc(-c4ccc(Cl)cc4)cc23)c1F [Vemurafenib] (10 nM) | 87.6 |
